The values that follow come from ChEMBL document CHEMBL1201862, “PubChem BioAssay data set” (2004).

The structures appear in SMILES notation.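 48-hour exposure; five concentrations; linearly interpolated endpoints. At the GI50, growth is halved.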 Activity calls are given as the source filed them. Rule as the data show it: active = GI50 up to about 1.1 µM and inactive = higher.

Test systems include COLO 205; SK-OV-3; Hs-578T; DU-145; UACC-62; EKVX; MDA-MB-231; MCF7; UO-31; SN12C; M14; A549; NCI-H460; HCT-15; NCI-H23; CAKI-1; OVCAR-8; MDA-N; U-251; SNB-78.
What all share (test): DTP human tumour cell line panel, 48 h

For orientation: GI50 means the concentration giving 50% growth inhibition. On to `CCOC(=O)c1c(C)n(CCN2CCN(C)CC2)c2ccc(OC)cc12`, for which the GI50 in the assay on COLO 205 was 16.9 µM (inactive); with SK-OV-3, 72.6 µM (inactive); with Hs-578T, 55.5 µM (inactive); in the assay with DU-145, > 100 µM (inactive); in the assay on UACC-62 it was 17 µM (inactive); in the assay with EKVX, > 100 µM (inactive). In addition, the GI50 in the assay with MDA-MB-231 is 24.5 µM (inactive); in the assay on MCF7, 33.6 µM (inactive); in the assay on UO-31, 35.1 µM (inactive); with SN12C, 50.9 µM (inactive); in the assay with M14 it was 16 µM (inactive); with A549 it was > 100 µM (inactive). The GI50 in the assay on NCI-H460 is 48.9 µM (inactive); in the assay on HCT-15, 28.8 µM; with NCI-H23, > 100 µM (inactive); in the assay with CAKI-1, 32.3 µM (inactive); in the assay with OVCAR-8, > 100 µM (inactive); with MDA-N it was 19.6 µM (inactive). The GI50 in the assay with U-251 is 31.8 µM (inactive).

For the compound `O=C1c2ccccc2C(O)(O)C1(O)C1(O)C(=O)c2ccccc2C1(O)O` (centres undefined), the GI50 in the assay on COLO 205 was 20.7 µM (inactive); in the assay on SK-OV-3 it was > 100 µM (inactive); in the assay with Hs-578T it was > 100 µM (inactive); in the assay on DU-145, 57.3 µM (inactive); in the assay with UACC-62, 86.9 µM (inactive); in the assay on EKVX it was 36.3 µM (inactive). For the same compound, the GI50 in the assay with MDA-MB-231 was > 100 µM (inactive); with MCF7, 16.8 µM (inactive); in the assay on UO-31, 19.6 µM (inactive); with SN12C it was 16.1 µM (inactive); in the assay with M14, 35 µM (inactive); in the assay with A549 it was 30.1 µM (inactive). The GI50 with NCI-H460 was 18.8 µM (inactive); in the assay with HCT-15 it was 21.8 µM; in the assay with NCI-H23, 20.8 µM (inactive); in the assay on CAKI-1 it was 29.6 µM (inactive); in the assay on OVCAR-8 it was 35.9 µM (inactive); with MDA-N it was 21.7 µM (inactive). Also, in the assay on U-251, the GI50 is 37.2 µM (inactive).

With `O=C(Nc1c(O)[nH]c(=S)[nH]c1=O)c1ccccc1F`, the GI50 in the assay with COLO 205, with SK-OV-3, in the assay on UACC-62, with UO-31, in the assay with SN12C and with SNB-78 was > 100 µM (inactive) each time. In addition, the GI50 in the assay with M14 is > 100 µM (inactive); in the assay with A549 it was > 100 µM (inactive); in the assay on NCI-H460 it was > 100 µM (inactive); in the assay with HCT-15, above 100 µM; in the assay with NCI-H23 it was > 100 µM (inactive); with CAKI-1, > 100 µM (inactive). The GI50 with OVCAR-8 and in the assay with U-251 was > 100 µM (inactive) each time.

Regarding `COC(=O)C12C34C=CC5(CCC6(C=CC1(CC3)O6)C52C(=O)OC)O4` (centres undefined), the GI50 in the assay on COLO 205, with SK-OV-3, in the assay on EKVX, in the assay with SN12C, in the assay on SNB-78 and in the assay on A549 was > 100 µM (inactive) each time. Besides, the GI50 with NCI-H460, in the assay on NCI-H23, with CAKI-1, in the assay with OVCAR-8 and in the assay on U-251 was > 100 µM (inactive) each time.

Consider `COc1cc(/C=N/n2c(-c3ccccc3)nn(C(C)=O)c2=O)cc(OC)c1OC`, for which the GI50 in the assay with COLO 205 was 1.58 µM (inactive); in the assay on SK-OV-3 it was 4.2 µM (inactive); with Hs-578T, 3.13 µM (inactive); with DU-145, 4.46 µM (inactive); in the assay on UACC-62, 1.92 µM (inactive); in the assay with EKVX it was 8.81 µM (inactive). Besides, the GI50 is 4.61 µM (inactive) with MDA-MB-231; 0.684 µM (active) in the assay with MCF7; 1.57 µM (inactive) in the assay on UO-31; 5.33 µM (inactive) in the assay on SN12C; 2.14 µM (inactive) in the assay with M14; 3.2 µM (inactive) in the assay with A549. Moreover, the 50% growth inhibitory concentration (GI50) in the assay on NCI-H460 is 0.619 µM (active); in the assay on HCT-15, 0.635 µM; with NCI-H23, 4.07 µM (inactive); in the assay on CAKI-1 it was 1.77 µM (inactive); in the assay with OVCAR-8, 3.78 µM (inactive); with MDA-N, 0.228 µM (active). Further, the GI50 in the assay on U-251 was 3 µM (inactive).

For `CSC1(Cc2ccccn2)C(=O)Nc2cccc([N+](=O)[O-])c21` (centres undefined), the GI50 in the assay on COLO 205, with SK-OV-3, in the assay with Hs-578T, with DU-145, in the assay on UACC-62 and in the assay with EKVX was > 100 µM (inactive) each time. For the same compound, the GI50 in the assay with MDA-MB-231 is > 100 µM (inactive); with MCF7 it was 76 µM (inactive); in the assay on UO-31, > 100 µM (inactive); in the assay on SN12C, > 100 µM (inactive); in the assay on M14 it was > 100 µM (inactive); in the assay with A549 it was > 100 µM (inactive). The GI50 was > 100 µM (inactive) in the assay on NCI-H460; above 100 µM with HCT-15; > 100 µM (inactive) in the assay on NCI-H23; > 100 µM (inactive) in the assay with CAKI-1; > 100 µM (inactive) in the assay with OVCAR-8; > 100 µM (inactive) in the assay on MDA-N. Moreover, the GI50 in the assay on U-251 is > 100 µM (inactive).

Turning to `Cc1cc(-c2ccccc2)cc2[n+]1CC=C2.[O-][Cl+3]([O-])([O-])[O-]`, the GI50 in the assay on COLO 205 was > 100 µM (inactive); in the assay with EKVX, 54.6 µM (inactive); in the assay with UO-31, 39.4 µM (inactive); with SN12C it was 95.5 µM (inactive); in the assay with SNB-78, > 100 µM (inactive); in the assay with M14, > 100 µM (inactive). Further, the GI50 in the assay with A549 is > 100 µM (inactive); in the assay on NCI-H460 it was > 100 µM (inactive); with NCI-H23, 59.2 µM (inactive); in the assay with CAKI-1 it was > 100 µM (inactive); in the assay on OVCAR-8, > 100 µM (inactive); in the assay with U-251 it was > 100 µM (inactive).

On to `O=C(CC(C(=O)c1ccsc1)c1cccs1)c1ccccc1` (centres undefined), for which the GI50 with COLO 205 is > 100 µM (inactive); in the assay on SK-OV-3, > 100 µM (inactive); with Hs-578T it was > 100 µM (inactive); in the assay on DU-145 it was 54.6 µM (inactive); with UACC-62, 49.2 µM (inactive); with EKVX it was > 100 µM (inactive). For the same compound, the GI50 with MDA-MB-231 was 56.8 µM (inactive); in the assay with MCF7 it was 45.1 µM (inactive); in the assay on UO-31, 19.2 µM (inactive); in the assay with SN12C, > 100 µM (inactive); in the assay on M14, 69.2 µM (inactive); with A549, 15.6 µM (inactive). Further, the GI50 was 36.6 µM (inactive) in the assay with NCI-H460; 56.4 µM in the assay on HCT-15; 29.7 µM (inactive) in the assay on NCI-H23; > 100 µM (inactive) in the assay with CAKI-1; 89.1 µM (inactive) in the assay with OVCAR-8; > 100 µM (inactive) with MDA-N. The GI50 in the assay on U-251 was 98.9 µM (inactive).

For `O=C(/C=C1\C[C@H]2C=Nc3ccccc3C(=O)N2C1)NCCCNC(=O)/C=C1\C[C@H]2C=Nc3ccccc3C(=O)N2C1`, the GI50 in the assay with COLO 205 was 12.9 µM (inactive); in the assay with SK-OV-3, 18.5 µM (inactive); in the assay with Hs-578T, 32 µM (inactive); in the assay on DU-145 it was 18.5 µM (inactive); in the assay with UACC-62, 15.7 µM (inactive); with EKVX it was 19.8 µM (inactive). Besides, the GI50 was 16.1 µM (inactive) with MDA-MB-231; 16.7 µM (inactive) in the assay on MCF7; 14.7 µM (inactive) with UO-31; 18 µM (inactive) in the assay on SN12C; 14.4 µM (inactive) in the assay on M14; 21.1 µM (inactive) with A549. For the same compound, the GI50 in the assay with NCI-H460 was 18.6 µM (inactive); in the assay on HCT-15, 18.1 µM; in the assay with NCI-H23, 15.5 µM (inactive); with CAKI-1, 13.3 µM (inactive); in the assay on OVCAR-8 it was 18.6 µM (inactive); with MDA-N it was 17.1 µM (inactive). Besides, the GI50 with U-251 was 13.6 µM (inactive).

For the compound `CC[C@H](C)[C@H]1NC(=O)[C@@H](NC(=O)[C@@H](CC(C)C)N(C)CC2CCCN2C(=O)C(C)=O)[C@@H](C)OC(=O)[C@H](Cc2ccc(OC)cc2)N(C)C(=O)C2CCCN2C(=O)[C@H](CC(C)C)NC(=O)[C@@H](C)C(=O)[C@H](C(C)C)OC(=O)C[C@@H]1O` (some centres undefined), the GI50 is 0.00293 µM (active) in the assay with COLO 205; 0.00376 µM (active) in the assay with SK-OV-3; 0.00405 µM (active) in the assay with Hs-578T; < 0.0025 µM (active) in the assay with DU-145; 0.00294 µM (active) in the assay on UACC-62; 0.00379 µM (active) in the assay with EKVX. Besides, the 50% growth inhibitory concentration (GI50) was 0.00432 µM (active) with MDA-MB-231; < 0.0025 µM (active) in the assay with MCF7; 0.00893 µM (active) in the assay with UO-31; 0.00545 µM (active) in the assay on SN12C; 0.00374 µM (active) in the assay on M14; 0.00356 µM (active) with A549. In addition, the GI50 with NCI-H460 was 0.00381 µM (active); with HCT-15, 0.0769 µM; in the assay with NCI-H23, 0.00719 µM (active); in the assay with CAKI-1, 0.0221 µM (active); in the assay with OVCAR-8, 0.00372 µM (active); in the assay with MDA-N, 0.00508 µM (active). Besides, the GI50 with U-251 is < 0.0025 µM (active).

Regarding `C[C@]12CCC(=O)C=C1CC[C@@H]1[C@@H]2[C@@H](O)C[C@@]2(C)[C@H]1CC[C@]2(O)C(=O)CO` [HYDROCORTISONE], the GI50 with COLO 205 was > 100 µM (inactive); in the assay with SK-OV-3, > 100 µM (inactive); in the assay on Hs-578T, > 100 µM (inactive); in the assay on DU-145, > 100 µM (inactive); in the assay on UACC-62, > 100 µM (inactive); in the assay on EKVX, > 82.4 µM (inactive). For the same compound, the GI50 was > 100 µM (inactive) in the assay on MDA-MB-231; > 100 µM (inactive) in the assay on MCF7; > 100 µM (inactive) with UO-31; 31.8 µM (inactive) in the assay on SN12C; > 100 µM (inactive) with M14; > 100 µM (inactive) in the assay on A549. Further, the GI50 is > 100 µM (inactive) in the assay with NCI-H460; above 100 µM in the assay with HCT-15; > 100 µM (inactive) in the assay on NCI-H23; > 100 µM (inactive) in the assay with CAKI-1; > 100 µM (inactive) in the assay with OVCAR-8; > 100 µM (inactive) in the assay with MDA-N. In the assay with U-251, the GI50 was > 100 µM (inactive).
